Experimental data: PubChem BioAssay (NCI)
“And” between values parts separate entries of the source, which are not always exact repeats. Equal entries are not always repeated.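 Test compounds were applied to cells in 96-well plates for 48 hours at 5 doses. GI50 marks 50% less growth. TGI: concentration producing complete growth inhibition.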

Columns and labels:
Assay in all cases: NCI-60 cell line screen, 48 h
[1] = tested on: KM12 colon
[2] = tested on: SK-MEL-5 melanoma
[3] = tested on: 786-0 renal
[4] = tested on: MCF7 breast
[5] = tested on: SK-MEL-2 melanoma
[6] = tested on: SN12C renal
[7] = tested on: MDA-MB-435
[8] = tested on: RXF 393 renal
[9] = tested on: SR leukemia
[10] = tested on: COLO 205 colon
[11] = tested on: T-47D breast
[12] = tested on: A498 renal
[13] = tested on: UO-31 renal
[14] = tested on: SF-539 CNS
[15] = tested on: NCI/ADR-RES ovarian
[16] = tested on: SK-MEL-28 melanoma
[17] = tested on: HT29 colon
[18] = tested on: SF-295 CNS
[19] = tested on: M14 melanoma
[20] = tested on: UACC-62 melanoma
[21] = tested on: SK-OV-3 ovarian
[22] = tested on: OVCAR-3 ovarian
[23] = tested on: SNB-19 CNS
[24] = tested on: CAKI-1 renal
[25] = tested on: MALME-3M melanoma
[26] = tested on: LOX IMVI melanoma
[27] = tested on: HS 578T breast
[28] = tested on: UACC-257 melanoma
[29] = tested on: HCT-116 colon
[30] = tested on: NCI-H226 lung
[31] = tested on: BT-549 breast
[32] = tested on: PC-3 prostate
[33] = tested on: OVCAR-8 ovarian
[34] = tested on: OVCAR-5 ovarian
[35] = tested on: HOP-92 NSCLC
[36] = tested on: RPMI-8226 leukemia
[37] = tested on: ACHN renal
[38] = tested on: NCI-H522 lung
[39] = tested on: SF-268 CNS
[40] = tested on: IGROV1 ovarian
[41] = tested on: EKVX NSCLC
[42] = tested on: MDA-N
[43] = tested on: NCI-H23 lung
[44] = tested on: MDA-MB-231 breast
[45] = tested on: A549 NSCLC
[46] = tested on: NCI-H460 lung
[47] = tested on: HOP-62 NSCLC
[48] = tested on: TK-10 renal
[49] = tested on: HCT-15 colon
[50] = tested on: DU-145 prostate
[51] = tested on: CCRF-CEM leukemia
[52] = tested on: K-562 leukemia
[53] = tested on: MOLT-4 leukemia
[54] = tested on: SNB-75 CNS
[55] = tested on: OVCAR-4 ovarian
[56] = tested on: HCC-2998 colon
[57] = tested on: U251 CNS
[58] = tested on: SW-620 colon

**Q.** Which results are given for `CCCC(=O)Nc1cn(COC)c(C(=O)N2C[C@H]3C[C@@]34C2=CC(=O)c2[nH]cc(C)c24)n1`?
**A.** GI50 [1]: 8.81 µM; TGI [1]: > 100 µM; GI50 [2]: 2.53 µM; TGI [2]: 16 µM and 9.93 µM; GI50 [3]: 1.98 µM; GI50 [4]: 3.53 µM; TGI [4]: 50 µM and > 100 µM; GI50 [5]: 7.39 µM; TGI [5]: 50 µM and > 100 µM; GI50 [6]: 5.55 µM; TGI [6]: 42.9 µM and 71.2 µM; GI50 [7]: 13.4 µM; TGI [7]: 26.2 µM and > 100 µM; GI50 [8]: 3.05 µM; TGI [8]: 26.9 µM and 8.82 µM; TGI [9]: > 100 µM; GI50 [10]: 4.41 µM; TGI [10]: 15.9 µM and 32.4 µM; GI50 [11]: 2.91 µM; TGI [11]: 25.4 µM and 34.8 µM; TGI [12]: 17.9 µM; GI50 [13]: 3.47 µM; TGI [13]: 28.1 µM and 73.1 µM; GI50 [14]: 1.87 µM; TGI [14]: 37.7 µM and 38.4 µM; GI50 [15]: 12 µM; TGI [15]: 15.8 µM and 43.6 µM; GI50 [16]: 17.3 µM; TGI [16]: 35.7 µM and > 100 µM; GI50 [17]: 12.4 µM; TGI [17]: 25.2 µM and > 100 µM; GI50 [18]: 5 µM; TGI [18]: 50 µM and 67.2 µM; GI50 [19]: 7.14 µM; TGI [19]: 50 µM and > 100 µM; TGI [20]: 14.5 µM and 26.1 µM; GI50 [21]: 26.7 µM; TGI [21]: 50 µM and > 100 µM; GI50 [22]: 4.93 µM; TGI [22]: 24.5 µM and 72 µM; GI50 [23]: 10.4 µM; TGI [23]: 50 µM and > 100 µM; GI50 [24]: 5.42 µM; TGI [24]: 17.3 µM and > 100 µM; GI50 [25]: 4.22 µM; TGI [25]: 9.45 µM and 26 µM; GI50 [26]: 3.13 µM; TGI [26]: 35.4 µM and > 100 µM; GI50 [27]: 20.9 µM; TGI [27]: 43.1 µM and > 100 µM; GI50 [28]: 10.5 µM; TGI [28]: 18.7 µM and 83.3 µM; GI50 [29]: 2.32 µM; TGI [29]: 50 µM and 12 µM; TGI [30]: 39.4 µM; GI50 [31]: 5.51 µM; TGI [31]: 43.1 µM and 58.9 µM; TGI [32]: 50 µM and > 100 µM; TGI [33]: 14.6 µM and 20.1 µM; GI50 [34]: 6.13 µM; TGI [34]: 50 µM and > 100 µM; GI50 [35]: 5.12 µM; TGI [35]: 26.8 µM and 31.4 µM; GI50 [36]: 3.21 µM; TGI [36]: 22.8 µM and > 100 µM; TGI [37]: 50 µM and > 100 µM; GI50 [38]: 1.84 µM; TGI [38]: 8.62 µM and 14.7 µM; GI50 [39]: 3.4 µM; TGI [39]: 50 µM and > 100 µM; GI50 [40]: 6.68 µM; TGI [40]: 50 µM and > 100 µM; GI50 [41]: 39.1 µM; TGI [41]: 39 µM and > 100 µM; GI50 [42]: 7.62 µM; TGI [42]: 19.5 µM and 59.6 µM; GI50 [43]: 2.59 µM; TGI [43]: 11.8 µM and 16.7 µM; GI50 [44]: 10.7 µM; TGI [44]: 39.7 µM and > 100 µM; TGI [45]: 50 µM and > 100 µM; TGI [46]: 15.9 µM and 28.7 µM; GI50 [47]: 4.52 µM; TGI [47]: 50 µM and > 100 µM; TGI [48]: 46.2 µM; TGI [49]: 50 µM and 72.2 µM; GI50 [50]: 2.56 µM; TGI [50]: 5 µM and 11.4 µM; GI50 [51]: 0.555 µM; GI50 [52]: 7.41 µM; TGI [52]: 50 µM and > 100 µM; GI50 [53]: 1.6 µM; GI50 [54]: 32 µM; TGI [54]: 21.6 µM and > 100 µM; TGI [55]: 30 µM and 36.5 µM; GI50 [56]: 1.89 µM; TGI [56]: 9.14 µM and 6.59 µM; TGI [57]: 50 µM and > 100 µM; GI50 [58]: 13.4 µM; TGI [58]: 50 µM and > 100 µM
